Measurements taken from ChEMBL document CHEMBL1131309, “Isoindol-1-one analogues of 4-(2'-methoxyphenyl)-1-[2'-[N-(2"-pyridyl)-p-iodobenzamido]ethyl]pipera zine (p-MPPI) as 5-HT1A receptor ligands” (J Med Chem, 1998).

Target: T1, 5-hydroxytryptamine receptor 1A (Rattus norvegicus, UniProt P19327)
T1 sequence (P19327 whole entry): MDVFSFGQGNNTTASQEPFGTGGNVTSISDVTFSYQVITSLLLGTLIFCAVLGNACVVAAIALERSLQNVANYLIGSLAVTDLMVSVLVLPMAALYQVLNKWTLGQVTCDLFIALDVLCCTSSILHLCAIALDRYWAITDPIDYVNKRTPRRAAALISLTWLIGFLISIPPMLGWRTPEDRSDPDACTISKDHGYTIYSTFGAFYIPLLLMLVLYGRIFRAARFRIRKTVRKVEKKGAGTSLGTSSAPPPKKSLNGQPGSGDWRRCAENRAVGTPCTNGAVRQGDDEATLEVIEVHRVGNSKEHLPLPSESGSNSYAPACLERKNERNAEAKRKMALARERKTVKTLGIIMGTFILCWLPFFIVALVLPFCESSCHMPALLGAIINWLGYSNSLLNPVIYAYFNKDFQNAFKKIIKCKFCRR
Description: In vitro binding affinity for 5-hydroxytryptamine 1A receptor in rat hippocampal membranes by [125I]-labeled agonist displacement.

| Structure (SMILES) | Ki [nM] |
| --- | --- |
| COc1ccccc1N1CCN(CCN(C(=O)c2ccc(I)cc2)c2ccccn2)CC1 | 0.2 |
| COc1ccccc1N1CCN(CCN2C(=O)c3cc(I)ccc3C2(O)c2ccccc2)CC1 (stereo unspecified) | 0.65 |
| COc1ccccc1N1CCN(CCN2C(=O)c3ccccc3C2c2ccccn2)CC1 (stereo unspecified) | 6.5 |
| COc1ccccc1N1CCN(CCN2C(=O)c3cc(N)ccc3C2(O)c2ccccc2)CC1 (stereo unspecified) | 1.85 |

The remaining lines, values ahead:

| Ki [nM] | Structure (SMILES) |
| --- | --- |
| 1.09 | COc1ccccc1N1CCN(CCN2C(=O)CCC2c2ccc(Br)cc2)CC1 (stereo unspecified) |
| 0.5 | COc1ccccc1N1CCN(CCN2C(=O)c3ccccc3C2c2ccccc2)CC1 (stereo unspecified) |
